Biological target: T1, MAGL (Homo sapiens, UniProt Q99685)
T1 sequence (Q99685 1-303): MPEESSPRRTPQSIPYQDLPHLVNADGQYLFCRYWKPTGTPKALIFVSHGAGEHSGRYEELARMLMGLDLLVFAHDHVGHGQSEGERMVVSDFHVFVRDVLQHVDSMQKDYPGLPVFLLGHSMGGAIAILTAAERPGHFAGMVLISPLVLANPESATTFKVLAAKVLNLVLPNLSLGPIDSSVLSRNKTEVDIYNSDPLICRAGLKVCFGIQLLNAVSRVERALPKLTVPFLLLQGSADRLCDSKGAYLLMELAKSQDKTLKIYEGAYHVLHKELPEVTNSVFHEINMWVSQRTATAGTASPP
Assay: MAGL inhibition, 2-AG assay (hydrolysis of 2-arachidonoylglycerol, arachidonic acid by mass spectrometry)
Assay type: biochemical
Settings: 2-AG assay (footnote [b])
How it was run: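 Human MAGL […] was preincubated 15 min at RT with compound ([…], 3-fold steps) in 50 mM Tris, 1 mM EDTA, 0.01% Tween. 2-AG (8 μM) was then added for 30 min at RT. Arachidonic acid was quantified by RapidFire SPE–triple quadrupole MS in negative ESI as its ratio to a d8-arachidonic acid standard.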

SMILES	IC50 [nM]
O=C1CO[C@H]2CCN(C(=O)N3CC(c4ccc(N5CC(OCC(F)(F)F)C5)cc4)C3)C[C@H]2N1 [Example 172, (4aR,8aS)-6-(3-(4-(3-(2,2,2-Trifluoroethoxy)azetidin-1-yl)phenyl)azetidine-1-carbonyl)hexahydro-2H-pyrido[4,3-b][1,4]oxazin-3(4H)-one]	4
CS(=O)(=O)c1cc(Cl)ccc1-c1ccc(C2CN(C(=O)N3CC[C@@H]4OCC(=O)N[C@@H]4C3)C2)cc1 [Example 173, (4aR,8aS)-6-(3-(4′-Chloro-2′-(methylsulfonyl)-[1,1′-biphenyl]-4-yl)azetidine-1-carbonyl)hexahydro-2H-pyrido[4,3-b][1,4]oxazin-3(4H)-one]	0.4
O=C1CO[C@H]2CCN(C(=O)N3CC(c4ccc(N5CCCC5C(F)(F)F)nc4)C3)C[C@H]2N1 (stereo partly drawn) [Example 174, (4aR,8aS)-6-(3-(6-(2-(Trifluoromethyl)pyrrolidin-1-yl)pyridin-3-yl)azetidine-1-carbonyl)hexahydro-2H-pyrido[4,3-b][1,4]oxazin-3(4H)-one]	7
O=C1CO[C@H]2CCN(C(=O)N3CC(c4ccc(N5CCC6(CC6)C5)cc4)C3)C[C@H]2N1 [Example 179, (4aR,8aS)-6-(3-(4-(5-Azaspiro[2.4]heptan-5-yl)phenyl)azetidine-1-carbonyl)hexahydro-2H-pyrido[4,3-b][1,4]oxazin-3(4H)-one]	1
O=C1CO[C@H]2CCN(C(=O)N3CC(c4ccc(OC(F)(F)F)cc4F)C3)C[C@H]2N1 [Example 182, (4aR,8aS)-6-(3-(2-Fluoro-4-(trifluoromethoxy)phenyl)azetidine-1-carbonyl)hexahydro-2H-pyrido[4,3-b][1,4]oxazin-3(4H)-one]	8
O=C1CO[C@H]2CCN(C(=O)N3CC(c4ccc(C5(C(F)(F)F)CC5)cc4)C3)C[C@H]2N1 [Example 188, (4aR,8aS)-6-[3-[4-[1-(Trifluoromethyl)cyclopropyl]phenyl]azetidine-1-carbonyl]-4,4a,5,7,8,8a-hexahydropyrido[4,3-b][1,4]oxazin-3-one]	4
O=C1CO[C@H]2CCN(C(=O)N3CC(c4ccc(N5CC6(C5)CC(F)(F)C6)cc4)C3)C[C@H]2N1 [Example 191, (4aR,8aS)-6-[3-[4-(6,6-Difluoro-2-azaspiro[3.3]heptan-2-yl)phenyl]azetidine-1-carbonyl]-4,4a,5,7,8,8a-hexahydropyrido[4,3-b][1,4]oxazin-3-one]	0.5
O=C1CO[C@H]2CCN(C(=O)N3CC(c4ccc(N5CC6CCC(C5)O6)cc4)C3)C[C@H]2N1 [Example 192, (4aR,8aS)-6-(3-(4-(8-Oxa-3-azabicyclo[3.2.1]octan-3-yl)phenyl)azetidine-1-carbonyl)hexahydro-2H-pyrido[4,3-b][1,4]oxazin-3(4H)-one]	8
O=C1CO[C@H]2CCN(C(=O)N3CC(c4ccc(-c5ccc(Cl)cc5Cl)cn4)C3)C[C@H]2N1 [Example 193, (4aR,8aS)-6-(3-(5-(2,4-Dichlorophenyl)pyridin-2-yl)azetidine-1-carbonyl)hexahydro-2H-pyrido[4,3-b][1,4]oxazin-3(4H)-one]	1
O=C1CO[C@H]2CCN(C(=O)N3CC(c4ccc(N5CCCCC5)cc4)C3)C[C@H]2N1 [Example 196, (4aR,8aS)-6-[3-[4-(1-Piperidyl)phenyl]azetidine-1-carbonyl]-4,4a,5,7,8,8a-hexahydropyrido[4,3-b][1,4]oxazin-3-one]	2
CC1(O)CN(c2ccc(C3CN(C(=O)N4CC[C@@H]5OCC(=O)N[C@@H]5C4)C3)cc2)C1 [Example 199, (4aR,8aS)-6-[3-[4-(3-Hydroxy-3-methylazetidin-1-yl)phenyl]azetidine-1-carbonyl]-4,4a,5,7,8,8a-hexahydropyrido[4,3-b][1,4]oxazin-3-one]	278
O=C1CO[C@H]2CCN(C(=O)N3CC(c4ccc(OC(F)(F)F)c(F)c4)C3)C[C@H]2N1 [Example 202, (4aR,8aS)-6-(3-(3-Fluoro-4-(trifluoromethoxy)phenyl)azetidine-1-carbonyl)hexahydro-2H-pyrido[4,3-b][1,4]oxazin-3(4H)-one]	12

Now from value to compound:

IC50 [nM]	SMILES
44	O=C1CO[C@H]2CCN(C(=O)N3CC(c4cccc(OC(F)(F)F)c4)C3)C[C@H]2N1 [Example 171, (4aR,8aS)-6-(3-(3-(Trifluoromethoxy)phenyl)azetidine-1-carbonyl)hexahydro-2H-pyrido[4,3-b][1,4]oxazin-3(4H)-one]
9	O=C1CO[C@H]2CCN(C(=O)N3CC(c4ccc(S(F)(F)(F)(F)F)cc4)C3)C[C@H]2N1 [Example 180, (4aR,8aS)-6-(3-(4-(Pentafluoro-16-sulfaneyl)phenyl)azetidine-1-carbonyl)hexahydro-2H-pyrido[4,3-b][1,4]oxazin-3(4H)-one]
593	O=C1CO[C@H]2CCN(C(=O)N3CC(c4ccc(Cl)cn4)C3)C[C@H]2N1 [Example 181, (4aR,8aS)-6-(3-(5-Chloropyridin-2-yl)azetidine-1-carbonyl)hexahydro-2H-pyrido[4,3-b][1,4]oxazin-3(4H)-one]
1600	COc1ccc(C2CN(C(=O)N3CC[C@@H]4OCC(=O)N[C@@H]4C3)C2)cn1 [Example 183, (4aR,8aS)-6-[3-(6-Methoxypyridin-3-yl)azetidine-1-carbonyl]-4,4a,5,7,8,8a-hexahydropyrido[4,3-b][1,4]oxazin-3-one]
146	O=C1CO[C@H]2CCN(C(=O)N3CCC(c4ccc(Br)cc4)C3)C[C@H]2N1 (stereo partly drawn) [Example 184, (4aR,8aS)-6-(3-(4-Bromophenyl)pyrrolidine-1-carbonyl)hexahydro-2H-pyrido[4,3-b][1,4]oxazin-3(4H)-one]
139	O=C1CO[C@H]2CCN(C(=O)N3CC(c4ccccc4)C3)C[C@H]2N1 [Example 185, (4aR,8aS)-6-(3-Phenylazetidine-1-carbonyl)hexahydro-2H-pyrido[4,3-b][1,4]oxazin-3(4H)-one]
1000	O=C1CO[C@H]2CCN(C(=O)N3CCC(c4ccccc4)CC3)C[C@H]2N1 [Example 186, (4aR,8aS)-6-(4-Phenylpiperidine-1-carbonyl)hexahydro-2H-pyrido[4,3-b][1,4]oxazin-3(4H)-one]
1	O=C1CO[C@H]2CCN(C(=O)N3CC(c4ccc(CC(F)(F)F)cc4)C3)C[C@H]2N1 [Example 187, (4aR,8aS)-6-[3-[4-(2,2,2-Trifluoroethyl)phenyl]azetidine-1-carbonyl]-4,4a,5,7,8,8a-hexahydropyrido[4,3-b][1,4]oxazin-3-one]
14	CC1(F)CN(c2ccc(C3CN(C(=O)N4CC[C@@H]5OCC(=O)N[C@@H]5C4)C3)cc2)C1 [Example 200, (4aR,8aS)-6-[3-[4-(3-Fluoro-3-methyl-azetidin-1-yl)phenyl]azetidine-1-carbonyl]-4,4a,5,7,8,8a-hexahydropyrido[4,3-b][1,4]oxazin-3-one]
101	O=C1CO[C@H]2CCN(C(=O)N3CC(c4ccc(N5CC(F)C5)cc4)C3)C[C@H]2N1 [Example 201, (4aR,8aS)-6-(3-(4-(3-Fluoroazetidin-1-yl)phenyl)azetidine-1-carbonyl)hexahydro-2H-pyrido[4,3-b][1,4]oxazin-3(4H)-one]
